Data published in patent US10732172B1, “Methods, systems, and compositions for determining blood clot formation, and uses thereof” (President and Fellows of Harvard College, priority 2015, dated 2020).
“Also recorded” adds a separate entry of the source.

Tests used:
[1] = system: HUVECs and platelets; assay: Platelet adhesion and dynamics on TNF-α stimulated endothelium (living or fixed), whole blood perfusion; assay type: cell-based, human; settings: for platelet aggregation pattern / Aggregation Index (AI) / translocation and embolization of thrombi / Embolization Index (EI): HUVEC, TNF-α 0, 5, 100 ng/ml
Protocol: 500 microliters (“μL”) of whole blood are pipetted into a fluid reservoir fitted to one end of a microchannel. Platelets are labeled with human CD41-PE antibody (e.g., 10 μL/mL from Invitrogen) that is directly added to the blood samples and incubated at room temperature for 10 minutes. Fluorescently labeled fibrinogen (e.g., 10 μg/mL from Life Sciences) is added, if required. Blood is pulled through the device (e.g., 30 μL/min) via tubing at an outlet using a syringe pump (e.g., PHD Ultra™ CP, Harvard Apparatus), resulting in an arterial shear rate of 750 s^−1. After two minutes, blood is supplemented with 100 millimolars (“mM”) calcium (“CaCl2”) and 75 mM magnesium (“MgCl2”) to support coagulation-activated blood clotting (e.g., 100 μL/mL).
Platelets are visualized using time-lapse fluorescence imaging (e.g., 20×, NA 0.4). A time series of a 10-frame panorama (e.g., 6 mm long×0.665 mm wide region of a microchannel), at a lapse of every 30 seconds is recorded. The resulting image stack is maximum intensity projected along time, thresholded, segmented, and cropped to a central 200 microns (“μm”) of the channel width for analysis. Finally, platelet coverage is computed from the binary image as the ratio of bright pixels to the total number of pixels in the image.
Multiple endothelial adhesion molecules are involved in the recruitment of blood cells and platelets in thrombosis in vivo. In previous studies, treatment of a living endothelium cultured in microfluidic channels with TNF-α results in an increase in expression of surface adhesion molecules, such as ICAM-1 and VCAM-1 within four hours after addition. To explore whether a fixed endothelium retains expression of these and other surface molecules that could potentially exacerbate thrombosis, the endothelium is first activated in the device by adding increasing doses of TNF-α, e.g., 0, 5, and 100 nanograms/millliter (“ng/ml”), for approximately 18 hours. The endothelium cells are fixed with 4% paraformaldehyde in phosphate-buffered saline (“PBS”) for 15 minutes at room temperature, are rinsed three times with PBS, and, then, stored in PBS at 4° C. in a humid environment.
To explore whether the fixed endothelium in the microfluidic devices retains the ability to promote hemostasis, recalcified citrated whole blood (coagulation activated) is immediately perfused through a microfluidic channel lined by the fixed endothelium and preserved for 24-36 hours. Platelet adhesion is analyzed for 15 minutes of flow.
(§1) Specifically, the analysis includes a method to quantitate platelet function in flow chambers and microfluidic devices that has been primarily limited to analyzing platelet adhesion on bare collagen surfaces. To analyze platelet-endothelial dynamics that will act as a robust readout of physiologically-relevant clotting, an automated imaging program creates an image time-series, K(x, y, t), containing a 10-frame panorama in space. Images are acquired at a frame rate of 2 panoramic images per minute, for a total time of 15 minutes. A non-dimensional stochastic index is derived to quantitate platelet endothelial dynamics (“P-E”), which is the interpercentile range of a coefficient of variance of the image time-series: P-E=range(CV(K(x,y,t) (1) A feature of this analytical readout is that instead of an “ensemble averaging,” the method incorporates the cell-surface interactions at the pixel level and quantitates statistical “dispersion” of interactions.
When the device is perfused with whole blood, thrombi that are rich in platelets and fibrin form on the surface (FIG. 65C). The spatiotemporal dynamics of fluorescent platelet activity during formation of these thrombi on the endothelial surface was analyzed by time-lapse imaging. As flow was stable for at least 15 min, all experiments were carried out within the first 15 minutes. In some embodiments, blood might begin to clot in the tubing connected to the chip at later times (leading to decreased perfusion rates). […]

[2] = system: primary alveolar epithelial cells (AE) and endothelial cells with whole blood; assay: Lung-on-a-chip stimulated with TNF-α or LPS: vascular ICAM-1, P-E, clots, gap junctions; assay type: cell-based, human
From the text: as §1
After plasma treatment of the microfluidic devices, the two chambers are pre-treated with 10% (3-aminopropyl)-trimethoxysilane (APTMES, e.g., from Sigma) in 100% anhydrous alcohol (e.g., from Sigma) for 10-20 minutes. The chambers are flushed sequentially with 70% ethanol in water and 100% ethanol, and then dried at 60-80° C. for two hours. Then, a mixture of rat tail collagen I (100 μg ml^−1 in PBS, from BD Biosciences) and fibronectin (e.g., 30 μg/ml in PBSm, from BD Biosciences) is introduced in both chambers of the microfluidic device. The microfluidic device is incubated at 37° C. for at least 2 hours before flushing with PBS or EGM-2 cell culture media.
Some of the microfluidic devices are used with collagen coating alone (without cells). In other devices, HUVECs (e.g. from Lonza) are cultured in Endothelial Growth Medium-2 (EGM-2, from Lonza) and used between certain passages. The cells (5-10×10^6 cells/ml) are introduced into the collagen-coated channels and incubated for 20 minutes at 37° C. to promote cell attachment before a second similar HUVEC suspension is, then, introduced. The microfluidic devices are incubated upside down for an additional 20 minutes to seed the cells on the ceiling and walls of the lower chamber.
The lower chamber is then flushed with EGM-2 and, then, a suspension of primary alveolar epithelial cells (e.g., from ScienCell Research Labs, Carlsbad, Calif.; 5-6×10^6 cells ml^−1) is introduced into the top chamber of the device. After a few hours, the top and bottom chambers are flushed with their respective media, and the microfluidic devices are incubated at 37° C. under 5% CO2 for 3 days (with media being replaced each day once). On day 4, the bottom vascular chamber is set on perfusion of EGM-2 media (e.g., 30 μL hr^−1; 0.5% fetal bovine serum) to provide shear to the HUVEC vessel chamber and a continuous supply of fresh media.
On day 6, the epithelial cell media in the top chamber is aspirated to create the air-liquid interface of the alveoli. Hereon, the cell culture continues for another 6-8 days, after which, in some cases, the top chamber is supplemented with 0, 5, or 100 ng ml^−1 TNF-α in PBS (e.g., from Sigma) overnight or LPS (e.g., 100 ng ml^−1 of E. Coli, from Sigma,) for 2 hours to cause cell activation. The LPS is sonicated in ultrasonic bath for about 20-30 minutes before introducing into the microfluidic device. After stimulation, the top chamber is clamped, the bottom chamber is rinsed with culture media, a reservoir cut from a 3 ml slip-tip syringe (e.g., from BD) is inserted on one end of the lower chamber, and a 1/16-inch male luer connector (e.g., from Qosina Corp) is inserted on the other end of the lower chamber.
When analyzing the formation of fibrin, blood samples re added with 15 μg ml^−1 of fluorescently labeled fibrinogen (e.g., Alexa 488 from Invitrogen). […]

Substance: tumor necrosis factor-α [TNF-α]
- platelet aggregation pattern / Aggregation Index (AI) [1]: heterogeneous and fluctuated in a dose-dependent manner; also recorded: varied depending on the dose of TNF-α
- translocation and embolization of thrombi / Embolization Index (EI) [1]: great variation in the fluorescent signal over time and space; also recorded: increased with increasing doses
- platelet aggregation pattern / Aggregation Index (AI) ([1]; listed as TNFα): rise of AI with increasing TNFα dose
- translocation and embolization of thrombi / Embolization Index (EI) ([1]; listed as TNFα): increased in a TNFα dose-dependent manner
- area-averaged platelet adhesion rate on living HUVECs ([1]; TNF-α stimulated HUVECs (TNF+; TNF++) versus unstimulated): increase in platelet adhesion
- platelet dynamics (TPD, SPD) on fixed HUVECs ([1]; TNF-α treated and fixed, versus fixed collagen or untreated fixed endothelium): elevated
- platelet coverage on fixed endothelium ([1]; endothelium treated with increasing doses of TNF-α prior to fixation): increases in a TNF-α dose-dependent manner; also recorded: dose-dependent increase in platelet surface adhesion; also recorded: dose-dependent increase in surface coverage of platelet-rich thrombi
- platelet-endothelial dynamics (P-E; spatial and temporal dispersion) ([1]; living endothelium stimulated with TNF-α): increase in a TNF-α dose dependent manner; also recorded: significant fluctuations; also recorded: TNF-α dose-dependent increase in both the spatial and temporal dispersion
- platelet coverage / adhesion on living endothelium ([1]; living endothelium stimulated with TNF-α before blood flow): increases in a TNF-α dose-dependent manner; also recorded: platelet adhesion again occurs; also recorded: platelet adhesion and aggregation again resulted
- vascular ICAM-1 expression in lung-on-chip ([2]; TNF-α on alveolar compartment containing AE): increases in a dose-dependent manner
- platelet-endothelial dynamics in lung-on-chip ([2]; TNF-α stimulated versus untreated): follows a similar trend as ICAM-1
- clots (platelets and fibrin) in vascular compartment of lung-on-chip ([2]; TNF-α stimulated, end of assay): significant amount of clots are observed
